Measured values published in the supplement of paper PMC11061612.

Tests used:
AZD1390 = compound: CC(C)n1c(=O)n(C)c2cnc3cc(F)c(-c4ccc(OCCCN5CCCCC5)nc4)cc3c21 [AZD1390]; conditions: max 0.3 µM
Procedure, shortened: (§1)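 Cancer cell lines were seeded into 1536-well plates in 7.5 μl medium (DMEM/F12 or RPMI, 10% FBS), held 24 hours at 37°C and 5% CO2, and dosed for 72 hours with final DMSO typically 0.2%. Luminescence from CellTiter-Glo 2.0, scaled between blank-well and DMSO-well means, served as viability. The single-agent IC50 was obtained from dose-response fits with a non-linear mixed effects model, each fit being a two-parameter logistic curve.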

Gefitinib = compound: COc1cc2ncnc(Nc3ccc(F)c(Cl)c3)c2cc1OCCCN1CCOCC1 [Gefitinib]; conditions: max 10 µM
Procedure, shortened: as §1

Trametinib = compound: CC(=O)Nc1cccc(-n2c(=O)n(C3CC3)c(=O)c3c(Nc4ccc(I)cc4F)n(C)c(=O)c(C)c32)c1 [Trametinib]; conditions: max 1 µM
Procedure, shortened: as §1

Alisertib = compound: COc1cc(Nc2ncc3c(n2)-c2ccc(Cl)cc2C(c2c(F)cccc2OC)=NC3)ccc1C(=O)O [Alisertib]; conditions: max 10 µM
Procedure, shortened: as §1

AZD8186 = compound: C[C@@H](Nc1cc(F)cc(F)c1)c1cc(C(=O)N(C)C)cc2c(=O)cc(N3CCOCC3)oc12 [AZD8186]; conditions: max 3 µM
Procedure, shortened: as §1

Selumetinib = compound: Cn1cnc2c(F)c(Nc3ccc(Br)cc3Cl)c(C(=O)NOCCO)cc21 [Selumetinib]; conditions: max 10 µM
Procedure, shortened: as §1

AZD7648 = compound: Cc1cc2ncnn2cc1Nc1ncc2c(n1)n(C1CCOCC1)c(=O)n2C [AZD7648]; conditions: max 10 µM
Procedure, shortened: as §1

AZD4320 = compound: CN(CC[C@H](CSC1=CC=CC=C1)NC2=C(C=C(C=C2)S(=O)(=O)NC(=O)C3=CC=C(C=C3)N4CCC(CC4)[C@H](C5=CC=CC=C5C6=CC=C(C=C6)Cl)O)S(=O)(=O)C(F)(F)F)CCO [AZD4320]; conditions: max 1 µM
Procedure, shortened: as §1

AZD5991 = compound: Cc1c2c(nn1C)CSCc1cc(n(C)n1)CSc1cc(c3ccccc3c1)OCCCc1c(C(=O)O)n(C)c3c-2c(Cl)ccc13 [AZD5991]; conditions: max 1 µM
Procedure, shortened: as §1

SN-38 = compound: CCc1c2c(nc3ccc(O)cc13)-c1cc3c(c(=O)n1C2)COC(=O)[C@]3(O)CC [SN-38]; conditions: max 0.3 µM
Procedure, shortened: as §1

SG3199 = compound: CC1=CN2[C@@H](C1)C=NC3=CC(=C(C=C3C2=O)OC)OCCCCCOC4=C(C=C5C(=C4)N=C[C@@H]6CC(=CN6C5=O)C)OC [SG3199]; conditions: max 0.001 µM
Procedure, shortened: as §1

Venetoclax = compound: CC1(C)CCC(CN2CCN(c3ccc(C(=O)NS(=O)(=O)c4ccc(NCC5CCOCC5)c([N+](=O)[O-])c4)c(Oc4cnc5[nH]ccc5c4)c3)CC2)=C(c2ccc(Cl)cc2)C1 [Venetoclax]; conditions: max 1 µM
Procedure, shortened: as §1

Lapatinib = compound: CS(=O)(=O)CCNCc1ccc(-c2ccc3ncnc(Nc4ccc(OCc5cccc(F)c5)c(Cl)c4)c3c2)o1 [Lapatinib]; conditions: max 10 µM
Procedure, shortened: as §1

Doxorubicin = compound: COc1cccc2c1C(=O)c1c(O)c3c(c(O)c1C2=O)C[C@@](O)(C(=O)CO)C[C@@H]3O[C@H]1C[C@H](N)[C@H](O)[C@H](C)O1 [Doxorubicin]; conditions: max 1 µM
Procedure, shortened: as §1

Palbociclib = compound: CC(=O)c1c(C)c2cnc(Nc3ccc(N4CCNCC4)cn3)nc2n(C2CCCC2)c1=O [Palbociclib]; conditions: max 10 µM
Procedure, shortened: as §1

Capivasertib = compound: C1CN(CCC1(C(=O)N[C@@H](CCO)C2=CC=C(C=C2)Cl)N)C3=NC=NC4=C3C=CN4 [Capivasertib]; conditions: max 10 µM
Procedure, shortened: as §1

Olaparib = compound: O=C(c1cc(Cc2n[nH]c(=O)c3ccccc23)ccc1F)N1CCN(C(=O)C2CC2)CC1 [Olaparib]; conditions: max 10 µM
Procedure, shortened: as §1

AZD5153 = compound: COc1nnc2ccc(N3CCC(c4ccc(OCCN5CCN(C)C(=O)[C@H]5C)cc4)CC3)nn12 [AZD5153]; conditions: max 1 µM
Procedure, shortened: as §1

Prexasertib = compound: COc1cccc(OCCCN)c1-c1cc(Nc2cnc(C#N)cn2)n[nH]1 [Prexasertib]; conditions: max 1 µM
Procedure, shortened: as §1

Dasatinib = compound: CC1=C(C(=CC=C1)Cl)NC(=O)C2=CN=C(S2)NC3=CC(=NC(=N3)C)N4CCN(CC4)CCO [Dasatinib]; conditions: max 2 µM
Procedure, shortened: as §1

Savolitinib = compound: C[C@@H](c1ccc2nccn2c1)n1nnc2ncc(-c3cnn(C)c3)nc21 [Savolitinib]; conditions: max 1 µM
Procedure, shortened: as §1

AZD6738 = compound: C[C@@H]1COCCN1C2=NC(=NC(=C2)C3(CC3)[S@](=N)(=O)C)C4=C5C=CNC5=NC=C4 [AZD6738]; conditions: max 10 µM
Procedure, shortened: as §1

Taselisib = compound: Cc1nc(-c2cn3c(n2)-c2ccc(-c4cnn(C(C)(C)C(N)=O)c4)cc2OCC3)n(C(C)C)n1 [Taselisib]; conditions: max 10 µM
Procedure, shortened: as §1

AZD2811 = compound: CCN(CCO)CCCOc1ccc2c(Nc3cc(CC(=O)Nc4cccc(F)c4)[nH]n3)ncnc2c1 [AZD2811]; conditions: max 1 µM
Procedure, shortened: as §1

AZD1775 = compound: C=CCn1c(=O)c2cnc(Nc3ccc(N4CCN(C)CC4)cc3)nc2n1-c1cccc(C(C)(C)O)n1 [AZD1775]
Procedure, shortened: as §1

Crizotinib = compound: C[C@@H](Oc1cc(-c2cnn(C3CCNCC3)c2)cnc1N)c1c(Cl)ccc(F)c1Cl [Crizotinib]; conditions: max 10 µM
Procedure, shortened: as §1

AZD0156 = compound: CN(C)CCCOc1ccc(-c2ccc3ncc4c(c3c2)n(C2CCOCC2)c(=O)n4C)cn1 [AZD0156]
Procedure, shortened: as §1

MK-2206 = compound: NC1(c2ccc(-c3nc4ccn5c(=O)[nH]nc5c4cc3-c3ccccc3)cc2)CCC1 [MK-2206]; conditions: max 10 µM
Procedure, shortened: as §1

Cell Line | IC50, cell viability 72 h (AZD1390) | IC50, cell viability 72 h (Gefitinib) | IC50, cell viability 72 h (Trametinib) | IC50, cell viability 72 h (Alisertib) | IC50, cell viability 72 h (AZD8186) | IC50, cell viability 72 h (Selumetinib) | IC50, cell viability 72 h (AZD7648) | IC50, cell viability 72 h (AZD4320) | IC50, cell viability 72 h (AZD5991) | IC50, cell viability 72 h (SN-38) | IC50, cell viability 72 h (SG3199) | IC50, cell viability 72 h (Venetoclax) | IC50, cell viability 72 h (Lapatinib) | IC50, cell viability 72 h (Doxorubicin) | IC50, cell viability 72 h (Palbociclib) | IC50, cell viability 72 h (Capivasertib) | IC50, cell viability 72 h (Olaparib) | IC50, cell viability 72 h (AZD5153) | IC50, cell viability 72 h (Prexasertib) | IC50, cell viability 72 h (Dasatinib) | IC50, cell viability 72 h (Savolitinib) | IC50, cell viability 72 h (AZD6738) | IC50, cell viability 72 h (Taselisib) | IC50, cell viability 72 h (AZD2811) | IC50, cell viability 72 h (AZD1775; max 3 µM) | IC50, cell viability 72 h (Crizotinib) | IC50, cell viability 72 h (AZD0156; max 3 µM) | IC50, cell viability 72 h (MK-2206) | IC50, cell viability 72 h (AZD1775; max 1 µM) | IC50, cell viability 72 h (AZD0156; max 1 µM)
A172 (Glioblastoma) | > 300 nM | > 10000 nM | > 1000 nM | 1420 nM | > 3000 nM | > 10000 nM | > 10000 nM | > 1000 nM | > 1000 nM | 44.1 nM | > 1 nM | > 1000 nM | > 10000 nM | 189 nM | > 10000 nM | > 10000 nM | > 10000 nM | > 1000 nM | 367 nM | > 2000 nM | > 1000 nM | 9490 nM | > 10000 nM | 708 nM | > 3000 nM | > 10000 nM | > 3000 nM |  |  | 
PA-TU-8902 (Pancreatic Carcinoma) | > 300 nM | > 10000 nM | > 1000 nM | > 10000 nM | > 3000 nM | > 10000 nM | > 10000 nM | > 1000 nM | > 1000 nM | > 300 nM | > 1 nM | > 1000 nM | > 10000 nM | > 1000 nM | > 10000 nM | > 10000 nM | > 10000 nM | > 1000 nM | 693 nM | > 2000 nM | > 1000 nM | > 10000 nM | 3550 nM | > 1000 nM | > 3000 nM | > 10000 nM | > 3000 nM | > 10000 nM |  | 
HuO9 (Osteosarcoma) | > 300 nM | > 10000 nM | > 1000 nM | 5740 nM | > 3000 nM | > 10000 nM | > 10000 nM | 171 nM | 64.2 nM | 3.15 nM | > 1 nM | > 1000 nM | > 10000 nM | 322 nM | > 10000 nM | > 10000 nM | > 10000 nM | 275 nM | 46.3 nM | > 2000 nM | > 1000 nM | 1160 nM | 511 nM | > 1000 nM | 307 nM | 7070 nM | > 3000 nM | 8020 nM |  | 
HCC1143 (Breast Carcinoma) | > 300 nM | > 10000 nM | > 1000 nM | > 10000 nM | > 3000 nM | > 10000 nM | > 10000 nM | > 1000 nM | > 1000 nM | 237 nM | > 1 nM | > 1000 nM | > 10000 nM | > 1000 nM | > 10000 nM | > 10000 nM | > 10000 nM | > 1000 nM | 19 nM | > 2000 nM | > 1000 nM | 2870 nM | 5950 nM | > 1000 nM | 1050 nM | > 10000 nM | > 3000 nM | > 10000 nM |  | 
NCI-H1688 (Small Cell Lung Carcinoma) | > 300 nM | > 10000 nM | > 1000 nM | > 10000 nM | > 3000 nM | > 10000 nM | > 10000 nM | > 1000 nM | > 1000 nM | > 300 nM | > 1 nM | > 1000 nM | > 10000 nM | > 1000 nM | > 10000 nM | > 10000 nM | > 10000 nM | > 1000 nM | 533 nM | > 2000 nM | > 1000 nM | > 10000 nM | 8310 nM | > 1000 nM | 2540 nM | > 10000 nM | > 3000 nM | > 10000 nM |  | 
RCC10RGB (Kidney Carcinoma) | > 300 nM | 7990 nM | 753 nM | 3460 nM | 1010 nM | > 10000 nM | > 10000 nM | > 1000 nM | > 1000 nM | 101 nM | > 1 nM | > 1000 nM | > 10000 nM | > 1000 nM | > 10000 nM | > 10000 nM | > 10000 nM | > 1000 nM | 851 nM | 435 nM | > 1000 nM | > 10000 nM | 3250 nM | > 1000 nM | 2620 nM | > 10000 nM | > 3000 nM |  |  | 
JHH-6 (Hepatocellular Carcinoma) | > 300 nM | > 10000 nM | > 1000 nM | > 10000 nM | > 3000 nM | > 10000 nM | > 10000 nM | > 1000 nM | > 1000 nM | > 300 nM | > 1 nM | > 1000 nM | > 10000 nM | > 1000 nM | > 10000 nM | > 10000 nM | > 10000 nM | 922 nM | > 1000 nM | > 2000 nM | > 1000 nM | > 10000 nM | > 10000 nM | > 1000 nM | > 3000 nM | > 10000 nM | > 3000 nM |  |  | 
SNU-61 (Colorectal Carcinoma) | > 300 nM | > 10000 nM | 529 nM | > 10000 nM | > 3000 nM | > 10000 nM | > 10000 nM | > 1000 nM | > 1000 nM | > 300 nM | > 1 nM | > 1000 nM | > 10000 nM | > 1000 nM | > 10000 nM | > 10000 nM | > 10000 nM | > 1000 nM | > 1000 nM | > 2000 nM | > 1000 nM | > 10000 nM | > 10000 nM | > 1000 nM |  | > 10000 nM |  |  | > 1000 nM | > 1000 nM
